Data reported in patent US11247994B2, “6-dithio-substituted-2′-deoxyguanosine compound, preparation method thereof and use thereof” (ZHEJIANG UNIVERSITY, priority 2018, dated 2022).
pIC50: −log10 of the molar value.

Assays:
[1] = system: human leukemia cells K562; experiment: MTT assay, tumor cell growth inhibition, K562; assay type: cell-based; conditions: 48 hours
Source text: (§1) MTT Assay—Inhibitory Effect of 6-dithio-substituted-2′-deoxyguanosine Derivatives on Tumor Cell Growth
(§2) We measured the tumor cell growth inhibitory activity of candidate compounds by MTT assay. Human tumor cells in logarithmic growth phase were digested with 0.25% pancreatin for a certain time, centrifuged, re-suspended and counted with a blood cell counting plate to prepare a cell suspension, and the cell suspension was adjusted to 1.0×10^4-1×10^5 cells/mL. The cell suspension was inoculated into a 96-well culture plate, 100 μL per well, and cultured in an incubator with saturated humidity, 37° C. and 5% CO2 for 24 hours until the cells completely adhered to the wall. The test compound was diluted to the required concentration with a complete medium, the complete medium of the 96-well culture plate inoculated with human tumor cells was sucked out, a medicament-containing medium was added, 100 μL per well, the final concentration of DMSO was less than 0.1%, and the culture plate was put in an incubator for 48 hours. 10 μl of MTT was added to each well of the 96-well plate, and the culture was continued for 4 h. The culture was stopped and the culture solution in the well was carefully sucked off. 150 μL DMSO was added to each well, and shaken at a low speed for 10 min on a shaking table, so that the crystal was fully dissolved. The absorbance of each well was measured at OD 570 nm of an enzyme-linked immunosorbent assay instrument. At the same time, zeroing wells (the culture medium, MTT, dimethyl sulfoxide) and control wells (cells, a drug dissolution medium with the same concentration, a culture solution, MTT, dimethyl sulfoxide) were set up, and the cell growth inhibitory activity was calculated with the corresponding solvents as the control. 3-6 multiple wells in each group were set up with repetition of several times. Cell viability of control=(Adrug group−Azeroing well)/(Acontrol well−Azeroing well)*100%. Drawing was drawn, the data were fitted into a concentration response curve with a variable slope, and IC50 value was calculated from the curve.

[2] = system: human colon cancer cells HT29; experiment: MTT assay, tumor cell growth inhibition, HT29; assay type: cell-based; conditions: HT-29, 48 hours
Source text: as §1, §2

[3] = system: human breast cancer cells Bcap37; experiment: MTT assay, tumor cell growth inhibition, Bcap37; assay type: cell-based; conditions: 48 hours
Source text: as §1, §2

[4] = system: human non-small cell lung cancer A549; experiment: MTT assay, tumor cell growth inhibition, A549; assay type: cell-based; conditions: 48 hours
Source text: as §1, §2

[5] = system: human colon cancer cells HCT116; experiment: MTT assay, tumor cell growth inhibition, HCT116; assay type: cell-based; conditions: HCT-116, 48 hours
Source text: as §1, §2

[6] = system: human gastric cancer cells BGC; experiment: MTT assay, tumor cell growth inhibition, BGC; assay type: cell-based; conditions: 48 hours
Source text: as §1, §2

[7] = A375 tumor-bearing mouse model, body weight, toxicity and blood biochemical indexes; assay type: in vivo; conditions: compound D 10 mg/kg
Method: 2) Human Melanoma Cell A375 Tumor-Bearing Mouse Model
We further studied the inhibitory effect of the compound D on human malignant melanoma by using A375 tumor-bearing mouse model. The method was basically the same as above. Dacarbazine (DTIC) is the first-line drug for melanoma. The designed administration groups were: compound D 10 mg/kg group; 6-thio-dG+PX12 combined drug group (the dose is equivalent to twice the molar amount of the compound D); DTIC 20.4 mg/kg group (the dose is equivalent to 4 times the molar amount of the compound D) and blank solvent group.

[8] = system: NCM460; experiment: MTT assay, cell growth inhibition, NCM460; assay type: cell-based; conditions: Homo sapiens, 48 hours, read-out: Tumor cell growth inhibition IC50, NCM460
Source text: as §1, §2

[9] = system: human breast cancer cells MCF7; experiment: MTT assay, tumor cell growth inhibition, MCF7; assay type: cell-based; conditions: 48 hours
Source text: as §1, §2

[10] = system: human colon cancer cell line HCT116 subcutaneous transplanted tumor; experiment: Tumor-bearing test in nude mice, HCT116 subcutaneous transplanted tumor (tumor volume, TUNEL); assay type: in vivo; conditions: HCT116 model
Source text: Tumor-Bearing Test in Nude Mice—Inhibitory Effect of 6-Dithio-Substituted-2′-Deoxyguanosine Derivatives on the Growth of Subcutaneous Transplanted Tumor Tissue in Nude Mice
1) Tumor-Bearing Mouse Model of Human Colon Cancer Cell Line HCT116
We took human colon cancer cell line HCT116 as the research object, and established a subcutaneous transplanted tumor model of human colon cancer in 32 immunodeficient nude mice. The 24th generation HCT116 cells in logarithmic growth phase were digested with pancreatin to prepare a single-cell suspension, and 1×10^7 cells were inoculated subcutaneously in the right armpit of male nude mice about 5 weeks old. After inoculation, cyclophosphamide (100 mg/kg) was injected intraperitoneally for two consecutive days. […] On the 20th day after colon cancer cell HCT116 was implanted subcutaneously, nude mice were divided into 7 groups by a random number table method, including a test drug group, a positive control group and a blank control group. Specifically, group A: the compound A was administrated; Group B: the compound B was administrated; Group C: the compound C was administrated; Group D: the compound D was administrated; Group E: the compound 6-thio-DG was administrated; Group F: the compound PX-12 was administrated; Group G: blank group, without administration of any compound. Except group C with 3 rats and group G with 4 rats, all other 5 groups had 5 rats, they mice were labeled and injected by tail vein once every two days for 24 days, 12 times, with the dose of compound A being 2 mg/kg for the first 8 times and 10 mg/kg for the last 4 times, and the dosages of other drugs being the same molar weights. The tumor volume was calculated by taking the length of the tumor as the longest diameter and the width as the corresponding vertical diameter, and the tumor volume V=(length×width^2) mm^3/2. 48 hours after the last treatment, blood was taken from the eyes, and then the animals were killed. Blood was centrifuged to get the supernatant, and then blood biochemical analysis was performed. Paraffin embedded sections of fixed tissues were stained with HE. The tumor mass in a frozen tissue was sectioned in a frozen state, and then stained by DAPI and TUNEL to judge the apoptosis of the tumor tissue in nude mice.

[11] = system: human melanoma cells A375; experiment: MTT assay, tumor cell growth inhibition, A375; assay type: cell-based; conditions: A-375, 48 hours
Source text: as §1, §2

Q: With `CC(C)SSc1nc(N)nc2c1ncn2[C@H]1C[C@H](O)[C@@H](CO)O1` [D, 6-(isopropyldithio)-2′-deoxyguanosine] as the compound, how does the pIC50 [1] read?
A: 4.80

Q: What about the pIC50 [2] of the same compound?
A: 5.37

Q: And the pIC50 [3]?
A: 4.64

Q: And the pIC50 [4]?
A: 4.51

Q: What about the pIC50 [5] of the same compound?
A: 5.96

Q: And the pIC50 [6]?
A: 4.93

Q: What about the Body weight [7] of the same compound?
A: after 13 days of administration, the body weight was significantly higher than that of DITC group, 6-thio-dG and PX-12 combination group

Q: What about the “Toxicity compared with 6-thio-dG and PX-12 combination” value ([7]; combination at twice the molar amount) of the same compound?
A: lower toxicity than the combined drug group

Q: And the pIC50 [8]?
A: < 3.00

Q: What about the pIC50 [9] of the same compound?
A: 4.38

Q: And the “Extent of apoptosis in tumor tissue (TUNEL staining, rank order)” value ([10]; frozen tumor sections, DAPI and TUNEL, G group = blank)?
A: D group>A group≈B group≈E group (6-thio-dG group)>C group>F group (PX-12 group)>G group (KB group)

Q: And the “Inhibitory effect on the growth of subcutaneous transplanted tumor tissue in nude mice (rank order, from slope of tumor volume)” value ([10]; tail vein once every two days for 24 days, compound A 2 mg/kg first 8 times, 10 mg/kg last 4 times, others equimolar, KB = blank)?
A: D>B≈A≈6-thio-dG>PX-12>C>KB

Q: And the “Ability to inhibit the growth of transplanted tumor tissue compared with positive controls” value ([10]; tail vein once every two days for 24 days, equimolar doses)?
A: stronger than that of positive control 6-thio-dG and PX-12

Q: What about the pIC50 [11] of the same compound?
A: 6.43
